Source: paper PMC7407158, “Reprogramming of the Antibacterial Drug Vancomycin Results in Potent Antiviral Agents Devoid of Antibacterial Activity” (Pharmaceuticals, 2020)
Converted amounts (≈) assume the structure as drawn. Where two headings read alike, the source gives them in different places.

Key:
[1] = system: herpes simplex virus type 1 (HSV-1 strain KOS); test: CPE reduction, MTS assay, HSV-1 in HEL cells; type: cell-based; settings: Human alphaherpesvirus 1, protection against virus-induced CPE, read-out: Antiviral EC50 HSV-1
[2] = in vitro; settings: human
[3] = in vitro; settings: human; remark: listed apart in the source
[4] = in vitro; settings: African green monkey
[5] = system: vaccinia virus (strain Lederle); test: microbe, parasite or virus in culture; type: cell-based; settings: Orthopoxvirus vaccinia, HEL, read-out: Antiviral EC50 Vaccinia Virus
[6] = system: herpes simplex virus type 2 (HSV-2, strain G); test: CPE reduction, MTS assay, HSV-2 in HEL cells; type: cell-based; settings: Human alphaherpesvirus 2, protection against virus-induced CPE, read-out: Antiviral EC50 HSV-2
[7] = system: thymidine kinase deficient HSV-1/TK- mutant; test: microbe, parasite or virus in culture; type: cell-based, herpes simplex virus type 1; settings: Human alphaherpesvirus 1, HEL, read-out: Antiviral EC50 HSV-1/TK-
[8] = system: Vero, African Green monkey kidney cells; settings: read-out: CC50 Vero; mock-infected Vero cells, MTS assay
[9] = system: S. epidermidis mecA; test: Broth microdilution MIC, S. epidermidis mecA; type: cell-based; settings: for MIC: Staphylococcus epidermidis, read-out: In Vitro MIC
Description: (§1) Antibacterial tests were carried out by the broth microdilution method on a panel of eight Gram-positive bacterial strains, using vancomycin and teicoplanin as reference compounds.

[10] = system: E. faecalis ATCC 51,299 VanB; test: Broth microdilution MIC, E. faecalis ATCC 51,299 VanB; type: cell-based; settings: for MIC: Enterococcus faecalis, ATCC51, read-out: In Vitro MIC
Description: as §1

[11] = system: E. faecalis ATCC 29212; test: Broth microdilution MIC, E. faecalis ATCC 29212; type: cell-based; settings: for MIC: Enterococcus faecalis
Description: as §1

[12] = system: B. subtilis ATCC 6633; test: Broth microdilution MIC, B. subtilis ATCC 6633; type: cell-based; settings: for MIC: Bacillus subtilis
Description: as §1

[13] = system: S. epidermidis ATCC 35984; test: Broth microdilution MIC, S. epidermidis ATCC 35984; type: cell-based; settings: for MIC: Staphylococcus epidermidis
Description: as §1

[14] = system: E. faecalis 15,376 VanA; test: Broth microdilution MIC, E. faecalis 15,376 VanA; type: cell-based; settings: for MIC: Enterococcus faecalis, read-out: In Vitro MIC
Description: as §1

[15] = system: S. aureus MRSA ATCC 33591; test: Broth microdilution MIC, S. aureus MRSA ATCC 33591; type: cell-based; settings: for MIC: Staphylococcus aureus, read-out: In Vitro MIC
Description: as §1

[16] = system: HEL, human embryonic lung fibroblast cells; settings: read-out: CC50 HEL; mock-infected HEL cells, MTS assay
[17] = system: influenza A or B viruses; test: Anti-influenza virus activity in MDCK cells, MTS assay, overall for the three influenza A or B viruses; type: cell-based, Influenza A and B viruses
[18] = system: MDCK cells; settings: read-out: CC50 (50% cytotoxic concentration), mock-infected, MTS cell viability assay, three days
[19] = system: HeLa, human cervix carcinoma cells; settings: read-out: CC50 HeLa; mock-infected HeLa cells, MTS assay
[20] = system: S. aureus MSSA ATCC 29213; test: Broth microdilution MIC, S. aureus MSSA ATCC 29213; type: cell-based; settings: for MIC: Staphylococcus aureus, read-out: In Vitro MIC
Description: as §1

[21] = system: A/PR/8/34 virus; type: cell-based, Influenza A virus
[22] = in vitro; settings: dog
[23] = system: Influenza A/H1N1 (A/Ned/378/05); test: Influenza CPE reduction in MDCK cells, MTS assay, A/H1N1; type: cell-based; settings: Influenza A virus, H1N1; MDCK cells; A/Ned/378/05; inhibition of virus-induced CPE by MTS assay; read-out: Antiviral EC50 Influenza A/H1N1
[24] = system: Influenza A/H3N2 (A/Victoria/361/11); test: Influenza CPE reduction in MDCK cells, MTS assay, A/H3N2; type: cell-based; settings: Influenza A virus, H3N2; MDCK cells; A/Victoria/361/11; inhibition of virus-induced CPE by MTS assay; read-out: Antiviral EC50 Influenza A/H3N2
[25] = system: Influenza B (B/Ned/537/05); test: Influenza CPE reduction in MDCK cells, MTS assay, influenza B; type: cell-based; settings: Influenza B virus, inhibition of virus-induced CPE by MTS assay, read-out: Antiviral EC50 Influenza B
[26] = S. aureus MSSA ATCC 29213, broth microdilution
[27] = ATCC29212, read-out: In Vitro MIC
[28] = ATCC6633, read-out: In Vitro MIC
[29] = ATCC35984, read-out: In Vitro MIC

Nc1nc2c(ncn2COCCO)c(=O)[nH]1 [Aciclovir]
EC50 [1]: 2.4 µM | CC50 [2]: > 250 µM | CC50 [3]: > 250 µM | CC50 [4]: > 250 µM | EC50 [5]: > 250 µM | EC50 [6]: 0.05 µM | EC50 [7]: 146 µM

Nc1ccn(C[C@@H](CO)OCP(=O)(O)O)c(=O)n1 [Cidofovir]
EC50 [1]: 2.4 µM | CC50 [2]: > 250 µM | CC50 [3]: > 250 µM | CC50 [4]: > 250 µM | EC50 [5]: 37 µM | EC50 [6]: 1 µM | EC50 [7]: 5.8 µM

CCCCSC1=C(SCCCC)C(=O)N(CCOCCOCCOCCOCc2cn(C3C(=O)NC(CC(N)=O)C(=O)NC4C(=O)NC5C(=O)NC(C(=O)NC(C(=O)O)c6cc(O)cc(O)c6-c6cc5ccc6O)C(O)c5ccc(c(Cl)c5)Oc5cc4cc(c5O)Oc4ccc(cc4Cl)C3O)nn2)C1=O (stereo not drawn) [Compound 7]
CC50 [8]: > 100 µM | MIC [9]: 32 mg/L (≈ 20.9 µM) | MIC [10]: 256 mg/L (≈ 167 µM) | MIC ([11]; ATCC29212, E. faecalis ATCC 29212, broth microdilution, read-out: In Vitro MIC): 32 mg/L (≈ 20.9 µM) | MIC ([12]; ATCC6633, B. subtilis ATCC 6633, broth microdilution, read-out: In Vitro MIC): 32 mg/L (≈ 20.9 µM) | MIC ([13]; ATCC35984, S. epidermidis ATCC 35984, broth microdilution, read-out: In Vitro MIC): 32 mg/L (≈ 20.9 µM) | MIC [14]: 256 mg/L (≈ 167 µM) | MIC [15]: 256 mg/L (≈ 167 µM) | CC50 [16]: > 100 µM | anti-influenza virus activity (in words) [17]: robust activity | CC50 [18]: 18 µM | CC50 [19]: > 100 µM | MIC [20, 26]: 256 mg/L (≈ 167 µM) | virus-induced cytopathic effect (CPE) upon microscopic inspection [21]: no virus-induced cytopathic effect (CPE) was observed

CCCCCCS(=O)(=O)NC1C(=O)NC(CC(N)=O)C(=O)NC2C(=O)NC3C(=O)NC(C(=O)NC(C(=O)O)c4cc(O)cc(O)c4-c4cc3ccc4O)C(O)c3ccc(c(Cl)c3)Oc3cc2cc(c3O)Oc2ccc(cc2Cl)C1O (stereo not drawn) [Compound 8]
MIC [9]: 64 mg/L (≈ 54.9 µM) | MIC [10]: 128 mg/L (≈ 110 µM) | CC50 [22]: 100 µM | MIC [11, 27]: 32 mg/L (≈ 27.5 µM) | EC50 [23]: > 100 µM | MIC [12, 28]: 32 mg/L (≈ 27.5 µM) | MIC [13, 29]: 32 mg/L (≈ 27.5 µM) | MIC [14]: 256 mg/L (≈ 220 µM) | MIC [15]: 256 mg/L (≈ 220 µM) | EC50 [24]: > 100 µM | anti-influenza virus activity (in words) [17]: inactive | EC50 [25]: > 100 µM | MIC [20]: 256 mg/L (≈ 220 µM)

CCCCCCCCCCOCc1cn(CCOCCOCCOCCOCc2cn(CCNC(=O)[C@H]3NC(=O)[C@H]4NC(=O)[C@H](NC(=O)[C@@H]5NC(=O)[C@H](CC(N)=O)NC(=O)[C@H](N)[C@H](O)c6ccc(c(Cl)c6)Oc6cc5cc(c6O)Oc5ccc(cc5Cl)[C@H]4O)c4ccc(O)c(c4)-c4c(O)cc(O)cc43)nn2)nn1 [Compound 11]
MIC [9]: 256 mg/L (≈ 166 µM) | MIC [10]: 256 mg/L (≈ 166 µM) | MIC [11, 27]: 128 mg/L (≈ 83.2 µM) | MIC [12, 28]: 32 mg/L (≈ 20.8 µM) | MIC [13, 29]: 256 mg/L (≈ 166 µM) | MIC [14]: 256 mg/L (≈ 166 µM) | MIC [15]: 256 mg/L (≈ 166 µM) | CC50 [18]: ≥ 20 µM | MIC [20]: 256 mg/L (≈ 166 µM)

CCCCSC1=C(SCCCC)C(=O)N(CCOCCOCCOCCOCc2cn(CCNC(=O)[C@H]3NC(=O)[C@H]4NC(=O)[C@H](NC(=O)[C@@H]5NC(=O)[C@H](CC(N)=O)NC(=O)[C@H](N)[C@H](O)c6ccc(c(Cl)c6)Oc6cc5cc(c6O)Oc5ccc(cc5Cl)[C@H]4O)c4ccc(O)c(c4)-c4c(O)cc(O)cc43)nn2)C1=O [Compound 12]
MIC [9]: 256 mg/L (≈ 163 µM) | MIC [10]: 256 mg/L (≈ 163 µM) | MIC [11, 27]: 128 mg/L (≈ 81.4 µM) | MIC [12, 28]: 256 mg/L (≈ 163 µM) | MIC [13, 29]: 128 mg/L (≈ 81.4 µM) | MIC [14]: 256 mg/L (≈ 163 µM) | MIC [15]: 256 mg/L (≈ 163 µM) | anti-influenza virus activity (in words) [17]: only slightly active | CC50 [18]: 100 µM | MIC [20]: 256 mg/L (≈ 163 µM)

CCCCCCS(=O)(=O)NCCNC(=O)[C@H]1NC(=O)[C@H]2NC(=O)[C@H](NC(=O)[C@@H]3NC(=O)[C@H](CC(N)=O)NC(=O)[C@H](N)[C@H](O)c4ccc(c(Cl)c4)Oc4cc3cc(c4O)Oc3ccc(cc3Cl)[C@H]2O)c2ccc(O)c(c2)-c2c(O)cc(O)cc21 [Compound 13]
MIC [9]: 128 mg/L (≈ 106 µM) | MIC [10]: 128 mg/L (≈ 106 µM) | CC50 [22]: > 100 µM | MIC [11, 27]: 64 mg/L (≈ 53 µM) | EC50 [23]: 34 µM | MIC [12, 28]: 256 mg/L (≈ 212 µM) | MIC [13, 29]: 128 mg/L (≈ 106 µM) | MIC [14]: 256 mg/L (≈ 212 µM) | MIC [15]: 256 mg/L (≈ 212 µM) | EC50 [24]: 14 µM | anti-influenza virus activity (in words) [17]: only slightly active | EC50 [25]: > 100 µM | MIC [20]: 256 mg/L (≈ 212 µM)

Nc1nc(O)c2ncn(COC(CO)CO)c2n1 [Ganciclovir]
EC50 [1]: 0.1 µM | CC50 [2]: > 100 µM | CC50 [3]: > 100 µM | CC50 [4]: > 100 µM | EC50 [5]: > 100 µM | EC50 [6]: 0.03 µM

CN[C@H](CC(C)C)C(=O)N[C@H]1C(=O)N[C@@H](CC(N)=O)C(=O)N[C@H]2C(=O)N[C@H]3C(=O)N[C@H](C(=O)N[C@H](C(=O)O)c4cc(O)cc(O)c4-c4cc3ccc4O)[C@H](O)c3ccc(c(Cl)c3)Oc3cc2cc(c3O[C@@H]2O[C@H](CO)[C@@H](O)[C@H](O)[C@H]2O[C@H]2C[C@](C)(N)[C@H](O)[C@H](C)O2)Oc2ccc(cc2Cl)[C@H]1O [VAN, vancomycin]
MIC [9]: 4 mg/L (≈ 2.76 µM) | MIC [10]: 128 mg/L (≈ 88.3 µM) | MIC [11, 27]: 1 mg/L (≈ 0.69 µM) | MIC [12, 28]: 0.5 mg/L (≈ 0.345 µM) | MIC [13, 29]: 2 mg/L (≈ 1.38 µM) | MIC [14]: 256 mg/L (≈ 177 µM) | MIC [15]: 0.5 mg/L (≈ 0.345 µM) | MIC [20]: 0.5 mg/L (≈ 0.345 µM)

CC(=O)N[C@H]1[C@H]([C@H](O)[C@H](O)CO)OC(C(=O)O)=C[C@@H]1N=C(N)N [Zanamivir, reference compound]
CC50 [22]: > 100 µM | EC50 [23]: 0.4 µM | EC50 [24]: 9 µM | EC50 [25]: 4.5 µM

teicoplanin [reference compound]
In Vitro MIC ([9]; S. epidermidis mecA, broth microdilution): 16 mg/L | In Vitro MIC ([10]; E. faecalis ATCC 51,299 VanB, broth microdilution): 0.5 mg/L | In Vitro MIC ([11]; E. faecalis ATCC 29212, broth microdilution): 1 mg/L | In Vitro MIC ([12]; B. subtilis ATCC 6633, broth microdilution): 0.5 mg/L | In Vitro MIC ([13]; S. epidermidis ATCC 35984, broth microdilution): 4 mg/L | In Vitro MIC ([14]; E. faecalis 15,376 VanA, broth microdilution): 256 mg/L | In Vitro MIC ([15]; S. aureus MRSA ATCC 33591, broth microdilution): 0.5 mg/L | In Vitro MIC [20, 26]: 0.5 mg/L
